Values of other authors in US20080032989A1, “Method of treating inflammatory diseases using tyroskine kinase inhibitors” (priority 2006, published 2008).

Biological target: EGFR (Homo sapiens, UniProt P00533)
Details: Table 7; cited from earlier work

EGFR, sequence (P00533 25-1210, species assumed): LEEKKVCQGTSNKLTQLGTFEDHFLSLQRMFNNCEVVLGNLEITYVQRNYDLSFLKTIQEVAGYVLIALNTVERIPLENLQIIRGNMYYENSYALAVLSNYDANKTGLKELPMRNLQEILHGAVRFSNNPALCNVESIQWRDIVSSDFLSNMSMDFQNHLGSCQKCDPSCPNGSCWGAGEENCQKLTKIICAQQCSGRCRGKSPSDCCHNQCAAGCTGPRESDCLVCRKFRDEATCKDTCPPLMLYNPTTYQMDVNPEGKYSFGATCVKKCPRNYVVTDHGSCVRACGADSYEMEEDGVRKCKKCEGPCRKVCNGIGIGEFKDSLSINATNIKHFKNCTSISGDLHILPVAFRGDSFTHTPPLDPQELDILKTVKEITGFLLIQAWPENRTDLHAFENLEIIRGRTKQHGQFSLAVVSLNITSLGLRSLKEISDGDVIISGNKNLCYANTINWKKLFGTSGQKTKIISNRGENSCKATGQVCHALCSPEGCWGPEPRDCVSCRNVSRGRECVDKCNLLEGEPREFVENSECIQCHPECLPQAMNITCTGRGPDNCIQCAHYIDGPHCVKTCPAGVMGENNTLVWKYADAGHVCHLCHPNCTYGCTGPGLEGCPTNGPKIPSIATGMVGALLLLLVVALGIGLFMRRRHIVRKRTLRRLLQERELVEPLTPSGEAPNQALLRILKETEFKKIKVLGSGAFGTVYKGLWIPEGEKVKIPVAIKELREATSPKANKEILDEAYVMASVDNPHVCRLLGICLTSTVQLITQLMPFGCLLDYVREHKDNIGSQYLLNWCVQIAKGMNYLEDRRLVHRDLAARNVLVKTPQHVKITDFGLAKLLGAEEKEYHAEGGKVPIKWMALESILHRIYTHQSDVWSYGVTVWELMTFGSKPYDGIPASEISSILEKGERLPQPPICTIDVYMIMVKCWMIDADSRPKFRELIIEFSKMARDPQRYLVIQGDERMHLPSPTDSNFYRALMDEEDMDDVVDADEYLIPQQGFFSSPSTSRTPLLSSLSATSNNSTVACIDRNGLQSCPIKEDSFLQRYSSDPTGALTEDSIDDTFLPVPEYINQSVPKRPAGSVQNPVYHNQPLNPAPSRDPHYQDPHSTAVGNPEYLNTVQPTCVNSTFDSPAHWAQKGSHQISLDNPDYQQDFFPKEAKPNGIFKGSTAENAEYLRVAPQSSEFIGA

C[C@@H](Nc1ncnc2[nH]c(-c3ccc(O)cc3)cc12)c1ccccc1 [PKI-166]
EGFR Inhibitory profile (with IC50s when available): potent
